{"source": "patent US6489312B1", "about": "“Pharmaceutical formulations comprising aminoalkyl phosphorothioates” (MedImmune Oncology, Inc., priority 1999, dated 2002)", "key": {"[1]": {"test_system": "radiation-induced mucositis", "experiment": "Radiation-induced mucositis in the lip of irradiated mice, total mucositis score (erythema + edema, Parkins scoring)", "format": "in vivo, C57BL/6 female mice", "set-up": "key to Total Mucositis Score After 11 days: combined erythema + edema score (Parkins), maximum 7", "conditions": "for Score (total mucositis score): amifostine 50 mg/ml, 200 mg/Kg s.c. 30 minutes before 16.5 Gy irradiation, maximum score 7", "source_text": "One of the major limiting acute toxicities associated with radiotherapy is radiation-induced mucositis. The ability to reduce the duration and severity of acute mucosal reactions is of particular importance in the radiotherapy and/or chemotherapy of head and neck cancer. Therefore, the radioprotective effects of amifostine were examined in an experimental model of mucositis. In particular, the study compared the radioprotective effects of amifostine by subcutaneous (s.c.) and intraperitoneal (i.p.) administration.\n(§1) C57BL/6 female mice of 8-10 weeks old were used and fed with semi liquid food. The mice were randomly divided into treatment groups of five mice each. The treatment groups were, for example,\n(§2) Unanesthetized mice were maintained in supine position and irradiated exclusively on the tip of their mouth. […] Irradiation was performed with a RT 250 Philips apparatus delivering 1.98 Gy per min. (200 Kv, 20 mA, filter of 0.2 mm de Cu). During irradiation, a constant normobaric air renewal was maintained. The effects of amifostine were evaluated using a single dose of 16.5 Gy.\n(§3) Amifostine was dissolved in appropriate diluent to achieve a final concentration of 50 mg/ml immediately before injections. Amifostine was dissolved in 0.075% sodium deoxycholate to achieve a final concentration of 50 mg/ml. Amifostine was dissolved in a mixture of 2% EDTA and 2% sorbitol to achieve a final concentration of 50 mg/ml. Amifostine was dissolved in 0.2% EDTA to achieve a final concentration of 50 mg/ml. Subcutaneous injections (200 mg/Kg) were conducted 30 minutes before irradiation. Where a control group was used, a first control group was injected with the saline solution and subsequently irradiated, and a second control group was injected with the saline solution, but was not irradiated.\n(§4) The effects of irradiation on lip mucosa were evaluated using the scoring system described by Parkins et al. (1983, Radiother. Oncol. 1:159-165). Body weight of the treated mice were scored periodically after treatment. Reduction in body weight was used as an objective indication of the severity of mucositis induced by irradiation, presumably resulting from the inability of the animals to eat. In this model, the acute reactions peaked on day 10 to 11 after irradiation.\nOther symptoms of mucositis such as mucosal erythema and edema were also recorded. These symptoms developed more slowly than weight loss following irradiation. Mucosal erythema and edema were scored separately, and could be analyzed as separate scores or as a combined score yielding a maximum score of 7. Mouse lip mucosal erythema was scored according to Table 1.\nMucosal edema (swelling) of the lips was scored according to table 2.\n(§5) These examples describe pharmaceutical formulations of the invention comprising amifostine in combination with surfactants and/or hydrotropes and/or chelating agents. The pharmaceutical formulations were administered, and the effects of irradiation on lip mucosa evaluated using the methods described in the first Example above."}, "[2]": {"experiment": "Body weight of irradiated mice as objective indicator of mucositis", "format": "in vivo, C57BL/6 female mice", "conditions": "for Weight: amifostine 50 mg/ml, 200 mg/Kg s.c. 30 minutes before 16.5 Gy irradiation", "procedure": "as §1, §2, §3, §4, §5"}}}
{"smiles": "NCCCNCCS", "note": "[WR-1065, S-2-(3-aminopropylamino)ethanethiol]", "values": [{"measurement": "Total Mucositis Score After 11 days", "setting": "[1]; after 11 days, irradiated mice, methods of Example 1", "value": 5.1}, {"measurement": "% Weight Change After 6 Days", "setting": "[2]; after 6 days, irradiated mice, methods of Example 1", "value": "−8.7", "unit": "%"}]}
{"smiles": "NCCCNCCSP(=O)(O)O", "note": "[Amifostine, S-2-(3-aminopropylamino)ethyl dihydrogen phosphorothioate]", "values": [{"measurement": "Score (total mucositis score)", "setting": "[1]; Day 0", "value": 0.0}, {"measurement": "Score (total mucositis score)", "setting": "[1]; Day 6", "value": 0.5}, {"measurement": "Score (total mucositis score)", "setting": "[1]; Day 10", "value": 1.7}, {"measurement": "Score (total mucositis score)", "setting": "[1]; Day 11", "value": 1.8}, {"measurement": "Score (total mucositis score)", "setting": "[1]; Day 12", "value": 1.3}, {"measurement": "Score (total mucositis score)", "setting": "[1]; Day 18", "value": 0.4}, {"measurement": "Score (total mucositis score)", "setting": "[1]; Day 28", "value": 0.0}, {"measurement": "Weight", "setting": "[2]; Day 0", "value": 16.4, "unit": "g"}, {"measurement": "Weight", "setting": "[2]; Day 6", "value": 15.8, "unit": "g"}, {"measurement": "Weight", "setting": "[2]; Day 10", "value": 17.4, "unit": "g"}, {"measurement": "Weight", "setting": "[2]; Day 11", "value": 17.8, "unit": "g"}, {"measurement": "Weight", "setting": "[2]; Day 12", "value": 17.6, "unit": "g"}, {"measurement": "Weight", "setting": "[2]; Day 18", "value": 18.4, "unit": "g"}, {"measurement": "Weight", "setting": "[2]; Day 28", "value": 19.5, "unit": "g"}, {"measurement": "Effect on body weight reduction after irradiation (in words)", "setting": "[2]; s.c. administration before irradiation, compared with other groups", "value": "Less severe reductions in body weight"}]}
